Assays:
Assay in all cases: biochemical
Type in all cases: biochemical
[1] = biological target: T1, 363 human kinases (including Aurora A/B/C) (Homo sapiens, UniProt Q13976); details: PKG1a; for remaining activity at 0.1 µM: 100 nM
T1 sequence (Q13976 1-671): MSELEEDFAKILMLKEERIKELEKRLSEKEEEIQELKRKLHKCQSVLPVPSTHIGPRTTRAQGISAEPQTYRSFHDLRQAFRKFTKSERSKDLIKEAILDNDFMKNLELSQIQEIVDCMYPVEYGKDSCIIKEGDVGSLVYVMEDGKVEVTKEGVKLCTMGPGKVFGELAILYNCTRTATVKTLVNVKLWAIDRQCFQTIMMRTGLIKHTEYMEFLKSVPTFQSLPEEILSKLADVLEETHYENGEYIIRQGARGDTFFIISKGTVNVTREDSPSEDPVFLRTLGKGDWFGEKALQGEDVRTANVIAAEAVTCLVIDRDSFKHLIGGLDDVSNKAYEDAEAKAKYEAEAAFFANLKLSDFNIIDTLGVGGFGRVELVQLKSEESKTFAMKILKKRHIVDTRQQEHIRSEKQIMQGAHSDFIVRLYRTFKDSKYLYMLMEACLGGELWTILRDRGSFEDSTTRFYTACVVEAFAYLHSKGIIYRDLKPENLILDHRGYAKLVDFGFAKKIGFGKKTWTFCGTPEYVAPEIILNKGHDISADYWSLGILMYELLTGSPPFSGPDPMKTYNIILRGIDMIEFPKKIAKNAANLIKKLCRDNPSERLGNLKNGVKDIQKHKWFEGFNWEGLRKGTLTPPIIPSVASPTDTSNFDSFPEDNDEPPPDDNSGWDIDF
Excerpt: (§1) However, the Aurora A/B selectivity ratios derived from our in vitro and in vivo data can be compared to prioritize inhibitors.

[2] = biological target: 363 human kinases (including Aurora A/B/C) (Homo sapiens, UniProt Q16288); details: TRKC; for remaining activity at 0.1 µM: 100 nM
363 human kinases (including Aurora A/B/C) (Homo sapiens, UniProt Q16288), sequence (Q16288 32-839): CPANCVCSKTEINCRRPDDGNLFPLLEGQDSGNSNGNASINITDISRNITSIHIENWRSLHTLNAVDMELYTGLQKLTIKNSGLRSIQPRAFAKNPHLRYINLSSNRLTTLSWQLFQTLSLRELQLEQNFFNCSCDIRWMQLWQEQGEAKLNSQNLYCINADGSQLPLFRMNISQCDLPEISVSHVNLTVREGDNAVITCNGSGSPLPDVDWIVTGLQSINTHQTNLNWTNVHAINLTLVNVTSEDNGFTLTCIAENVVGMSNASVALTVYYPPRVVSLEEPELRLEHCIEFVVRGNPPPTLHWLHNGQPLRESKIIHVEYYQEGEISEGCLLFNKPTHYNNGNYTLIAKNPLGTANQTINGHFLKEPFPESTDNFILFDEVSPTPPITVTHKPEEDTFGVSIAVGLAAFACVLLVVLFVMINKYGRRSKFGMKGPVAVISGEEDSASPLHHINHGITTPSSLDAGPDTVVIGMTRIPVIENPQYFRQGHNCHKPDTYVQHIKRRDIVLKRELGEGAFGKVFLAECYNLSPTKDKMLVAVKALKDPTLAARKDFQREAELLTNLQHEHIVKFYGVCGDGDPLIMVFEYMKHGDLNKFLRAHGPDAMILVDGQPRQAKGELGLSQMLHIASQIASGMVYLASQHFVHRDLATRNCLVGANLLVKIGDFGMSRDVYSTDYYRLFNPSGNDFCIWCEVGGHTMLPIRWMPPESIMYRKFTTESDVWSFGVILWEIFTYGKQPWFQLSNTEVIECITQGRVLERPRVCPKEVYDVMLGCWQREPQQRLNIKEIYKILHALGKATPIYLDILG
Excerpt: as §1

[3] = biological target: 363 human kinases (including Aurora A/B/C) (Homo sapiens, UniProt O00311); details: CDC7/DBF4, [ATP] 15 µM; for remaining activity at 0.1 µM: 100 nM; for remaining activity at 0.1 µM / remaining activity at 0.5 µM: read-out: % Enzyme Activity (relative to DMSO controls)
363 human kinases (including Aurora A/B/C) (Homo sapiens, UniProt O00311), sequence (O00311 whole entry): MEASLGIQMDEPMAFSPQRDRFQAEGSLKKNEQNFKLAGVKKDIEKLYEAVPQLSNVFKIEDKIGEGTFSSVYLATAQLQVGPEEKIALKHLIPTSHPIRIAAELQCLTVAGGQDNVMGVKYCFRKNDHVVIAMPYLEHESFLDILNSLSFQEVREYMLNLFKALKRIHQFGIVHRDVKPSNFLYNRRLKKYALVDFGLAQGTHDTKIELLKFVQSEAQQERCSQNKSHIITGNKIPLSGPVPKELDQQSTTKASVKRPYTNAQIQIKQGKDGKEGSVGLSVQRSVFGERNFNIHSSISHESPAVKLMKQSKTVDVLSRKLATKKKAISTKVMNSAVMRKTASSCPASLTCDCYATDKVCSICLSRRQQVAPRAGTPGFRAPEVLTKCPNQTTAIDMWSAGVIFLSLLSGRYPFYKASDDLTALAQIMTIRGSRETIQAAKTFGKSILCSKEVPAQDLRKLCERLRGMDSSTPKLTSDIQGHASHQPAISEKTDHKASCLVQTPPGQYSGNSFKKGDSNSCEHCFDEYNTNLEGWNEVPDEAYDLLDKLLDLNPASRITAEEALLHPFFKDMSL
Excerpt: as §1

[4] = biological target: 363 human kinases (including Aurora A/B/C) (Homo sapiens, UniProt P04629); details: TRKA; for remaining activity at 0.1 µM: 100 nM
363 human kinases (including Aurora A/B/C) (Homo sapiens, UniProt P04629), sequence (P04629 33-796): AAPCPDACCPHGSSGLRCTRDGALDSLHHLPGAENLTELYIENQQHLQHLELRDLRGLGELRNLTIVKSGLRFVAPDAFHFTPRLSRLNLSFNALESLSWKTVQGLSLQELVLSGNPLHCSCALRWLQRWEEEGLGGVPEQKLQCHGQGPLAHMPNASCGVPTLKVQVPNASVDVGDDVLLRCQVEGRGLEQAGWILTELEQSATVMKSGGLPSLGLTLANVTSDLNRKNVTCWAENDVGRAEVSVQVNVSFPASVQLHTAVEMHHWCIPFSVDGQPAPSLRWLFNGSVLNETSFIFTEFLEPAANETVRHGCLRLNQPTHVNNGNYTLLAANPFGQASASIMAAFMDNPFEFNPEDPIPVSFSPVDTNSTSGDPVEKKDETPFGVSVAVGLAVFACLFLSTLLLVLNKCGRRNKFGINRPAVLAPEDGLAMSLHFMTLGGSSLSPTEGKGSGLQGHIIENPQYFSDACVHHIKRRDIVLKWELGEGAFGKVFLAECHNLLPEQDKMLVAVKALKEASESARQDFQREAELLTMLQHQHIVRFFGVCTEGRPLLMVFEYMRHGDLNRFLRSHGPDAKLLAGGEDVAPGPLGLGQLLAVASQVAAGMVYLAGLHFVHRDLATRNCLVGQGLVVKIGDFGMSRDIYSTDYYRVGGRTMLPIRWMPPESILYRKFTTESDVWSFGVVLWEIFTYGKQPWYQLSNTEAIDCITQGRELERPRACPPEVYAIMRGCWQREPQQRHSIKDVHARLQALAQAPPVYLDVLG
Excerpt: as §1

[5] = biological target: T2, 363 human kinases (including Aurora A/B/C) (Homo sapiens, UniProt Q02156); details: PKCepsilon; for remaining activity at 0.1 µM: 100 nM; for remaining activity at 0.1 µM / remaining activity at 0.5 µM: read-out: % Enzyme Activity (relative to DMSO controls)
T2 sequence (Q02156 1-737): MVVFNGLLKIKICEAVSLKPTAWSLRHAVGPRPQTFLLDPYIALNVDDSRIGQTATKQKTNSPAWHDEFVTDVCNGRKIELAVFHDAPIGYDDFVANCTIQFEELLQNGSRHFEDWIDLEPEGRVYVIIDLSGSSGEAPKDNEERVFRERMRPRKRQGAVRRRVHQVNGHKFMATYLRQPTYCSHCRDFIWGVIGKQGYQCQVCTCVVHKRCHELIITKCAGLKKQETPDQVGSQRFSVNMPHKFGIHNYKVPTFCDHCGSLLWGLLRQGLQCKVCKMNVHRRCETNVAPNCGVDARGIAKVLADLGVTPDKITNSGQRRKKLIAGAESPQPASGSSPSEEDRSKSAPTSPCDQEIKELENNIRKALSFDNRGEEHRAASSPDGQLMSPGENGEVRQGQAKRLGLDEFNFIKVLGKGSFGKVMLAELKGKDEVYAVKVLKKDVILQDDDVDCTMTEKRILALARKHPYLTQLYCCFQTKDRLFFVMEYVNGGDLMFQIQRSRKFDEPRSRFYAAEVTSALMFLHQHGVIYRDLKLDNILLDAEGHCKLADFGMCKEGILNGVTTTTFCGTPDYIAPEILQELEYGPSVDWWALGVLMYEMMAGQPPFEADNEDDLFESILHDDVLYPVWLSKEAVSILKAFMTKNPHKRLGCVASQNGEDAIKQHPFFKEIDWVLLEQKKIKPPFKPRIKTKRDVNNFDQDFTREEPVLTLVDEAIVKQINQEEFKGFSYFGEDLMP
Excerpt: as §1

[6] = biological target: 363 human kinases (including Aurora A/B/C) (Homo sapiens, UniProt P22607); details: FGFR3, [ATP] 30 µM; for remaining activity at 0.1 µM: 100 nM; for remaining activity at 0.1 µM / remaining activity at 0.5 µM: read-out: % Enzyme Activity (relative to DMSO controls)
363 human kinases (including Aurora A/B/C) (Homo sapiens, UniProt P22607), sequence (P22607 23-806): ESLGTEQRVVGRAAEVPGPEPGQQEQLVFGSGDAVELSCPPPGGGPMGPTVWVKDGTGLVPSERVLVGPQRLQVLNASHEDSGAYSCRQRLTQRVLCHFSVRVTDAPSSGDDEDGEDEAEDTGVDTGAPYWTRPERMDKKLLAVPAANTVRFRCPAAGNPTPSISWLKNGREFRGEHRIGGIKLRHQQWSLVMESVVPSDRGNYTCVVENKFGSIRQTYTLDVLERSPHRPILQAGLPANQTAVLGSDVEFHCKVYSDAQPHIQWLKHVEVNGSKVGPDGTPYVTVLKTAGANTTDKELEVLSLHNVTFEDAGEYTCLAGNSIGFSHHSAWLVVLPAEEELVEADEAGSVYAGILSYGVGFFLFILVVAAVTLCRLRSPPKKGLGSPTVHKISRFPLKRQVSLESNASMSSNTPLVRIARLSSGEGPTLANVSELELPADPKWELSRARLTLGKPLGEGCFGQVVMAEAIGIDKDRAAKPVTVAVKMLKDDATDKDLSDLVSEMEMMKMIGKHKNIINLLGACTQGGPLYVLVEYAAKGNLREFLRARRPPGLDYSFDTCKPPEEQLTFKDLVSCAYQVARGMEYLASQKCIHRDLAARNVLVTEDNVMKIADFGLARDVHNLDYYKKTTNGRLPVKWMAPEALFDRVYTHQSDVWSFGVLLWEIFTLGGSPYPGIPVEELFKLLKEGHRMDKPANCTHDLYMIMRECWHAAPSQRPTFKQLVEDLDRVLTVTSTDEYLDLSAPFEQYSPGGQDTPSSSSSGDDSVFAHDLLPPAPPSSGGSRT
Excerpt: as §1

[7] = biological target: T3, 363 human kinases (including Aurora A/B/C) (Homo sapiens, UniProt P45985); details: MKK4; for remaining activity at 0.1 µM: 100 nM; for remaining activity at 0.1 µM / remaining activity at 0.5 µM: read-out: % Enzyme Activity (relative to DMSO controls)
T3 sequence (P45985 1-399): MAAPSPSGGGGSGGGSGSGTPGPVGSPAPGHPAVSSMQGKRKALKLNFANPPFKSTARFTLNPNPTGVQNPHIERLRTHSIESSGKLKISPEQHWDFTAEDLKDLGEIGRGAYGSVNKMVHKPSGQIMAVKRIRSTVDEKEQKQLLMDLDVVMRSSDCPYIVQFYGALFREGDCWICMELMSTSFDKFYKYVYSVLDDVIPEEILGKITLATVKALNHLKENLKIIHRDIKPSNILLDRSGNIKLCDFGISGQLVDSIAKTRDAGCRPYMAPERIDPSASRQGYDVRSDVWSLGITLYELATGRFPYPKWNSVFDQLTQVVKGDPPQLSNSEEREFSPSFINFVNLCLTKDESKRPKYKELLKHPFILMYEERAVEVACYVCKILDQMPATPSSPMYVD
Excerpt: as §1

[8] = biological target: 363 human kinases (including Aurora A/B/C) (Homo sapiens, UniProt Q76MJ5); details: ERN2/IRE2, [ATP] 100 µM; for remaining activity at 0.1 µM: 100 nM; for remaining activity at 0.1 µM / remaining activity at 0.5 µM: read-out: % Enzyme Activity (relative to DMSO controls)
363 human kinases (including Aurora A/B/C) (Homo sapiens, UniProt Q76MJ5), sequence (Q76MJ5 35-926): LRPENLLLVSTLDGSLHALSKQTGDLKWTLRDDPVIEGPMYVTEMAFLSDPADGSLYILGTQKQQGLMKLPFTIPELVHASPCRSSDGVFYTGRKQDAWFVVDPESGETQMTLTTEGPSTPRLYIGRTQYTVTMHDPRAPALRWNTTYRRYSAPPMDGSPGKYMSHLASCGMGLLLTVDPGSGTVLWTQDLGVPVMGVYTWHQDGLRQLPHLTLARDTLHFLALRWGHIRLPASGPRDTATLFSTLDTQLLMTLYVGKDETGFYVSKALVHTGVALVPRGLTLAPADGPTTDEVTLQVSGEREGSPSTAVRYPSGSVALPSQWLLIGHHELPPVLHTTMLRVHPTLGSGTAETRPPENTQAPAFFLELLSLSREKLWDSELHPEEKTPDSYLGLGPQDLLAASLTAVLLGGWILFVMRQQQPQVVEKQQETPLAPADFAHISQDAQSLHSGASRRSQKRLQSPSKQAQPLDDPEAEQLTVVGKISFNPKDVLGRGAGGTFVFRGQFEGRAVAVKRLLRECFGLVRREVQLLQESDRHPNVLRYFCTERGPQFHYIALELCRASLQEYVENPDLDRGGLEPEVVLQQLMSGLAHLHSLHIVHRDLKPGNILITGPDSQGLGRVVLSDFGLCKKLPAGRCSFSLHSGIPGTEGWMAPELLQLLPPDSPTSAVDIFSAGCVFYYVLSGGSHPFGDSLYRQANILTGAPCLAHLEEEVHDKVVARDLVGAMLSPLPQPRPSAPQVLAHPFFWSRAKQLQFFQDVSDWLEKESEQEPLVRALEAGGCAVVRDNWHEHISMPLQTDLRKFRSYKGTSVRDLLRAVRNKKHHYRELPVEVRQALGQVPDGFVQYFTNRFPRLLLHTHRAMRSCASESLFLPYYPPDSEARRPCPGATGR
Excerpt: as §1

[9] = read-out: % Enzyme Activity (relative to DMSO controls)
[10] = 500 nM, read-out: % Enzyme Activity (relative to DMSO controls)

Structure (SMILES) | remaining activity at 0.1 µM [1, 9] | remaining activity at 0.1 µM [2, 9] | remaining activity at 0.1 µM [3] | remaining activity at 0.5 µM ([3]; 500 nM) | remaining activity at 0.1 µM [4, 9] | remaining activity at 0.1 µM [5] | remaining activity at 0.5 µM ([5]; 500 nM) | remaining activity at 0.1 µM [6] | remaining activity at 0.5 µM ([6]; 500 nM) | remaining activity at 0.1 µM [7] | remaining activity at 0.5 µM ([7]; 500 nM) | remaining activity at 0.1 µM [8] | remaining activity at 0.5 µM ([8]; 500 nM) | further results
O=C(O)[C@]1(Cc2cccc(Nc3nccs3)n2)CC[C@@H](Oc2cccc(Cl)c2F)CC1 [MK-5108] | 122% | 0.99% | 103% | 96.2% | 8.42% | 111% | 101% | 64.9% | 31.5% | 95.7% | 97.7% | 97% | 87.6% | 
O=C(c1cccc(Cl)c1F)N1CCN(Cc2cccc(Nc3nccs3)n2)CC1 [MK-8745] |  |  |  | 103% |  |  | 120% |  | 95.9% |  | 90.9% |  | 94.5% | % Enzyme Activity (relative to DMSO controls) ([1]; 500 nM): 94.34%; remaining activity at 0.5 µM [1, 10]: 95.4%; % Enzyme Activity (relative to DMSO controls) ([2]; 500 nM): 3.01%; remaining activity at 0.5 µM [2, 10]: 3.12%; % Enzyme Activity (relative to DMSO controls) ([3]; 500 nM): 101.19%; % Enzyme Activity (relative to DMSO controls) ([4]; 500 nM): 32.47%; remaining activity at 0.5 µM [4, 10]: 34.6%; % Enzyme Activity (relative to DMSO controls) ([5]; 500 nM): 120.37%; % Enzyme Activity (relative to DMSO controls) ([6]; 500 nM): 95.75%; % Enzyme Activity (relative to DMSO controls) ([7]; 500 nM): 89.78%; % Enzyme Activity (relative to DMSO controls) ([8]; 500 nM): 93.54%
CCn1cc(-c2ccnc3[nH]c(-c4cccc(CN(C)C)c4)cc23)c(-c2ccc(NC(=O)N(C)C)cc2)n1 [GSK1070916] | 126% | 78.6% | 95.4% |  | 87.7% | 102% |  | 63.8% |  | 90.1% |  | 87.3% |  | 
